Experimental data from patent US10259810B2, “N-sulfonylated pyrazolo[3,4-b]pyridin-6-carboxamides and method of use” (AbbVie S.à.r.l., priority 2015, dated 2019).

Tests used:
ΔF508-CFTR [1] = target: T1, ΔF508-CFTR (Homo sapiens, UniProt P13569, DEL508-508); experiment: CFTR cell surface levels using HRP-tagged ΔF508-CFTR expressing CFBE cells, intrinsic corrector capacity; format: cell-based; design: % Activation: concentration or dose not given beside the values; conditions: HRP-tagged ΔF508-CFTR expressing CFBE41o- cells, compound alone (intrinsic corrector capacity), 20 hours at 33° C.; for EC50: read-out: EC50
T1 construct: host or cells: CFBE41o-, doxycycline-inducible
T1 sequence (P13569 with tags, fused parts or gaps DEL508-508): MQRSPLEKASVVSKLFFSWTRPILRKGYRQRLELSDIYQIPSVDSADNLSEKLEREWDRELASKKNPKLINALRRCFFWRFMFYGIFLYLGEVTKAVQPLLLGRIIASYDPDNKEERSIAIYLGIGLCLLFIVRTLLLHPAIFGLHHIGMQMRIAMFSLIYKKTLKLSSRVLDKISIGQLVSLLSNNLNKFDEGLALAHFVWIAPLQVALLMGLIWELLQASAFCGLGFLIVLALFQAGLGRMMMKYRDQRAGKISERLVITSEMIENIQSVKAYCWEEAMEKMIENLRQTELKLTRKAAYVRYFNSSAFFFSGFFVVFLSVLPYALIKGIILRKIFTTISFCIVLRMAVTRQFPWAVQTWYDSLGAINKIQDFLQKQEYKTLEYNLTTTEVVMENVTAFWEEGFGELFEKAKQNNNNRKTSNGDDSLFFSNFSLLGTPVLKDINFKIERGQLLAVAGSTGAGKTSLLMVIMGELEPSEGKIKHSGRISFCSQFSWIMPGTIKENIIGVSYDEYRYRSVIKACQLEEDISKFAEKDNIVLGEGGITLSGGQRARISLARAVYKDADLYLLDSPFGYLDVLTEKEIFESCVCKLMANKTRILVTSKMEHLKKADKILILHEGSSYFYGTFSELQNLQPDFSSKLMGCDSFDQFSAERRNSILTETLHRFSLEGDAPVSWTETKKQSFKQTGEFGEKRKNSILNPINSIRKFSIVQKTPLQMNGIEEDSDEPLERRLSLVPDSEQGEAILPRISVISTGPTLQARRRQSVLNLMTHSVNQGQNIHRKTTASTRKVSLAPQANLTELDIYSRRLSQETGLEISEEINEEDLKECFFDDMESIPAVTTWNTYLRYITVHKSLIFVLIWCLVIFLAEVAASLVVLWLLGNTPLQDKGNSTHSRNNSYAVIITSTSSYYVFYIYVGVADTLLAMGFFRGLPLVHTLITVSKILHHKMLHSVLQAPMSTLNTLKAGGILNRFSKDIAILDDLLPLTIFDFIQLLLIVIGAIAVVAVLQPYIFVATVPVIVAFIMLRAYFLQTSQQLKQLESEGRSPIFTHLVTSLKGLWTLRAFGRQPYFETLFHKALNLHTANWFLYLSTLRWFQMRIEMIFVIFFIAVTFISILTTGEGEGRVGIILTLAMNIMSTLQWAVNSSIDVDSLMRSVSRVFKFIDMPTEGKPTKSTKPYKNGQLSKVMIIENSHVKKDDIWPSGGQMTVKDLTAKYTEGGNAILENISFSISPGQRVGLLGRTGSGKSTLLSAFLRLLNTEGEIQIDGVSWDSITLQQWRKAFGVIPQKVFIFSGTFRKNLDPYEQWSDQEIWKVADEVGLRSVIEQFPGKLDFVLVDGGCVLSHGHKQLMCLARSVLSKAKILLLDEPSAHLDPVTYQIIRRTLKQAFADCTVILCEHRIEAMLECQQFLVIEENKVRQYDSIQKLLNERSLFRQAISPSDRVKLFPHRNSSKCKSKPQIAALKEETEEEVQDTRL
Outline: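 Surface ΔF508-CFTR was measured as HRP chemiluminescence from an extracellular-loop-4 tag, expressed as percent activity between DMSO and a […] corrector control.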

ΔF508-CFTR [2] = target: T1, ΔF508-CFTR; experiment: CFTR cell surface levels using HRP-tagged ΔF508-CFTR expressing CFBE cells, in the presence of a co-corrector; format: cell-based; conditions: HRP-tagged ΔF508-CFTR CFBE cells, in the presence of 3 μM co-corrector; for EC50: read-out: EC50
Outline: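 Chemiluminescent read-out of surface HRP (15 min, dark) after PBS washes. Activity is normalized as 100×(sample−DMSO)/(3 μM co-corrector alone−DMSO).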

SMILES | % Activation (ΔF508-CFTR [1]) [%] | EC50 (ΔF508-CFTR [1]) [nM] | % Activation (ΔF508-CFTR [2]) [%] | EC50 (ΔF508-CFTR [2]) [nM]
COC1CN(C2CCN(c3cc(C(=O)NS(C)(=O)=O)nc4c3c(C3CCC3)nn4-c3ccc(F)cc3)CC2)C1 [Compound 585, 3-cyclobutyl-1-(4-fluorophenyl)-N-(methanesulfonyl)-4-[4-(3-methoxyazetidin-1-yl)piperidin-1-yl]-1H-pyrazolo[3,4-b]pyridine-6-carboxamide] | 316.6 | 1240 | 509.7 | 248
CS(=O)(=O)NC(=O)c1cc(N2CCC(N3CCCC(C(F)(F)F)C3)CC2)c2c(C3CCC3)nn(-c3ccc(F)cc3)c2n1 (centres unmarked) [Compound 586, 3-cyclobutyl-1-(4-fluorophenyl)-N-(methanesulfonyl)-4-[3-(trifluoromethyl)[1,4'-bipiperidin]-1'-yl]-1H-pyrazolo[3,4-b]pyridine-6-carboxamide] | 331.67 | 52.4 | 618.65 | 37.1
COC1CCCN(C2CCN(c3cc(C(=O)NS(C)(=O)=O)nc4c3c(C3CCC3)nn4-c3ccc(F)cc3)CC2)C1 (centres unmarked) [Compound 587, 3-cyclobutyl-1-(4-fluorophenyl)-N-(methanesulfonyl)-4-(3-methoxy[1,4'-bipiperidin]-1'-yl)-1H-pyrazolo[3,4-b]pyridine-6-carboxamide] | 277.1 | 235 | 504.6 | 398
CC1(C)CN(C2CCN(c3cc(C(=O)NS(C)(=O)=O)nc4c3c(C3CCC3)nn4-c3ccc(F)cc3)CC2)CCO1 [Compound 588, 3-cyclobutyl-4-[4-(2,2-dimethylmorpholin-4-yl)piperidin-1-yl]-1-(4-fluorophenyl)-N-(methanesulfonyl)-1H-pyrazolo[3,4-b]pyridine-6-carboxamide] | 366.8 | 126 | 571.2 | 29
COCCN(C)C1CCN(c2cc(C(=O)NS(=O)(=O)N(C)C)nc3c2c(C2CCC2)nn3-c2ccc(F)cc2)CC1 [Compound 591, 3-cyclobutyl-N-(dimethylsulfamoyl)-1-(4-fluorophenyl)-4-{4-[(2-methoxyethyl)(methyl)amino]piperidin-1-yl}-1H-pyrazolo[3,4-b]pyridine-6-carboxamide] | 189.1 | 795 | 384 | 1590
CONS(=O)(=O)NC(=O)c1cc(N2CCC(N3CCOCC3)CC2)c2c(C3CCC3)nn(-c3ccc(F)cc3)c2n1 [Compound 592, 3-cyclobutyl-1-(4-fluorophenyl)-N-(methoxysulfamoyl)-4-[4-(morpholin-4-yl)piperidin-1-yl]-1H-pyrazolo[3,4-b]pyridine-6-carboxamide] | 300.8 | 183 | 518.55 | 56.8
CS(=O)(=O)NC(=O)c1cc(C2CCN(C3CCC(F)(F)CC3)CC2)c2c(C3CCC3)nn(-c3ccc(F)cc3)c2n1 [Compound 593, 3-cyclobutyl-4-[1-(4,4-difluorocyclohexyl)piperidin-4-yl]-1-(4-fluorophenyl)-N-(methanesulfonyl)-1H-pyrazolo[3,4-b]pyridine-6-carboxamide] | 157.8 | 190 | 366.7 | 194
CN(C)S(=O)(=O)NC(=O)c1cc(CN2CCC(N3CCOCC3)CC2)c2c(C3CCC3)nn(-c3ccc(F)cc3)c2n1 [Compound 595, 3-cyclobutyl-N-(dimethylsulfamoyl)-1-(4-fluorophenyl)-4-{[4-(morpholin-4-yl)piperidin-1-yl]methyl}-1H-pyrazolo[3,4-b]pyridine-6-carboxamide] | 58.87 | 1520 | 231.9 | 1430
CS(=O)(=O)NC(=O)c1cc(CN2CCC(N3CCOCC3)CC2)c2c(C3CCC3)nn(-c3ccc(F)cc3)c2n1 [Compound 596, 3-cyclobutyl-1-(4-fluorophenyl)-N-(methanesulfonyl)-4-{[4-(morpholin-4-yl)piperidin-1-yl]methyl}-1H-pyrazolo[3,4-b]pyridine-6-carboxamide] | 104.3 | 1380 | 304.8 | 1910
CC(C)N1CCC(c2cc(C(=O)NS(=O)(=O)N(C)C)nc3c2c(C2CCC2)nn3-c2ccc(F)cc2)CC1 [Compound 598, 3-cyclobutyl-N-(dimethylsulfamoyl)-1-(4-fluorophenyl)-4-[1-(propan-2-yl)piperidin-4-yl]-1H-pyrazolo[3,4-b]pyridine-6-carboxamide] | 28.03 | – | 153.9 | ≥ 10000
CS(=O)(=O)NC(=O)c1cc(C2CCN(CC3CCOCC3)CC2)c2c(C3CCC3)nn(-c3ccc(F)cc3)c2n1 [Compound 600, 3-cyclobutyl-1-(4-fluorophenyl)-N-(methanesulfonyl)-4-{1-[(oxan-4-yl)methyl]piperidin-4-yl}-1H-pyrazolo[3,4-b]pyridine-6-carboxamide] | 126.5 | 1210 | 326.1 | 1620
CN(C)S(=O)(=O)NC(=O)c1cc(C2CCN(CC3CCOCC3)CC2)c2c(C3CCC3)nn(-c3ccc(F)cc3)c2n1 [Compound 601, 3-cyclobutyl-N-(dimethylsulfamoyl)-1-(4-fluorophenyl)-4-{1-[(oxan-4-yl)methyl]piperidin-4-yl}-1H-pyrazolo[3,4-b]pyridine-6-carboxamide] | 112 | 2180 | 273.9 | 625
COC1CC(CN2CCC(c3cc(C(=O)NS(C)(=O)=O)nc4c3c(C3CCC3)nn4-c3ccc(F)cc3)CC2)C(OC)O1 (centres unmarked) [Compound 602, 3-cyclobutyl-4-{1-[(2,5-dimethoxyoxolan-3-yl)methyl]piperidin-4-yl}-1-(4-fluorophenyl)-N-(methanesulfonyl)-1H-pyrazolo[3,4-b]pyridine-6-carboxamide] | 133.6 | 1180 | 359.1 | 581
CS(=O)(=O)NC(=O)c1cc(C2CCN(CCC(F)(F)F)CC2)c2c(C3CCC3)nn(-c3ccc(F)cc3)c2n1 [Compound 603, 3-cyclobutyl-1-(4-fluorophenyl)-N-(methanesulfonyl)-4-[1-(3,3,3-trifluoropropyl)piperidin-4-yl]-1H-pyrazolo[3,4-b]pyridine-6-carboxamide] | 136.2 | 283 | 344.65 | 156
CN(C)S(=O)(=O)NC(=O)c1cc(C2CCN(CCC(F)(F)F)CC2)c2c(C3CCC3)nn(-c3ccc(F)cc3)c2n1 [Compound 604, 3-cyclobutyl-N-(dimethylsulfamoyl)-1-(4-fluorophenyl)-4-[1-(3,3,3-trifluoropropyl)piperidin-4-yl]-1H-pyrazolo[3,4-b]pyridine-6-carboxamide] | 86.51 | 490 | 268.3 | 300
COS(=O)(=O)NC(=O)c1cc(N2CCC(N3CCOCC3)CC2)c2c(C3CCC3)nn(-c3ccc(F)cc3)c2n1 [Compound 606, methyl {3-cyclobutyl-1-(4-fluorophenyl)-4-[4-(morpholin-4-yl)piperidin-1-yl]-1H-pyrazolo[3,4-b]pyridine-6-carbonyl}sulfamate] | 283.8 | 973 | 513.7 | 469
COCCN1CCN(C2CCN(c3cc(C(=O)NS(=O)(=O)N(C)C)nc4c3c(C3CCC3)nn4-c3ccc(F)cc3)CC2)CC1 [Compound 607, 3-cyclobutyl-N-(dimethylsulfamoyl)-1-(4-fluorophenyl)-4-{4-[4-(2-methoxyethyl)piperazin-1-yl]piperidin-1-yl}-1H-pyrazolo[3,4-b]pyridine-6-carboxamide] | 272.6 | 342 | 484.3 | 667
COCCN1CCN(S(=O)(=O)NC(=O)c2cc(N3CCC(COC)CC3)c3c(C4CCC4)nn(-c4ccc(F)cc4)c3n2)CC1 [Compound 610, 3-cyclobutyl-1-(4-fluorophenyl)-N-[4-(2-methoxyethyl)piperazine-1-sulfonyl]-4-[4-(methoxymethyl)piperidin-1-yl]-1H-pyrazolo[3,4-b]pyridine-6-carboxamide] | 182.13 | 186 | 375.5 | 119
